Assay results taken from patent US20130209543A1, “ENHANCED TREATMENT REGIMENS USING MTOR INHIBITORS” (Intellikine LLC, priority 2011, published 2013).

Assay: Phase I clinical trial: grade 3 or greater treatment-emergent adverse events (Table 9)
Assay type: in vivo
Experimental: Adult patients with histologically confirmed advanced solid tumors were enrolled in a 3+3 dose escalation Phase I study evaluating 3 intermittent schedules of administration for compound A: QW (once weekly), QD×3d QW (3 days on 4 days off), and QD×5d QW (5 days on 2 days off), in comparison with daily dosing (QD). Safety, maximum tolerated dose (MTD), pharmacokinetics (PK) and preliminary antitumor activity were evaluated.
Pharmacodynamic (PD) endpoints were evaluated in surrogate (peripheral blood cells [PBCs], skin) and tumor tissues for the phosphorylation of TORC1-dependent markers (4EBP1/S6), and TORC2-dependent markers (AKT/PRAS40). 50 patients were treated in 3 intermittent dosing regimens; 21 in 6 cohorts ranging 7-40 mg QW, 20 in 5 cohorts ranging 6-20 mg QD×3d QW, and 9 in 3 cohorts ranging 7-13 mg QD×5d QW. […] The MTD for intermittent dosing was not reached. All adverse events (AEs) reported were reversible. The most common (≧20%, n=35) AEs considered possibly related to compound A reported in all 3 dosing regimens included nausea (51%), hyperglycemia (37%), mucosal inflammation (29%), rash (23%), asthenia (23%), vomiting (26%), and diarrhea (20%). The majority of AEs considered possibly related to compound A in any regimen were Grade 1 or 2. The only reported Grade≧3 AE (≧5%) possibly related to compound A in 3 regimens was lymphopenia (6%). Tables 4-9 show summaries of observed adverse events for various treatment regimens of the invention.

CC(C)n1nc(-c2ccc3oc(N)nc3c2)c2c(N)ncnc21 [compound A]
Grade≧3 AE (≧5%) possibly related: lymphopenia (3 regimens): 6%
Abdominal pain upper, Grade 3 or greater TEAE (Total QD Dosing, N = 25): 1 (4%)
Anaemia, grade 3 or greater TEAE (Total QD Dosing, N = 25): 1 (4%)
Aspartate aminotransferase increased, Grade 3 or greater TEAE (Total QD Dosing, N = 25): 0 (0%)
Asthenia, grade 3 or greater TEAE (Total QD Dosing, N = 25): 0 (0%)
Catheter related infection, Grade 3 or greater TEAE (Total QD Dosing, N = 25): 1 (4%)
Cellulitis, Grade 3 or greater TEAE (Total QD Dosing, N = 25): 1 (4%)
Diarrhoea, grade 3 or greater TEAE (Total QD Dosing, N = 25): 1 (4%)
Disease progression, grade 3 or greater TEAE (Total QD Dosing, N = 25): 0 (0%)
Enterocutaneous fistula, Grade 3 or greater TEAE (Total QD Dosing, N = 25): 1 (4%)
Gamma-glutamyltransferase increased, Grade 3 or greater TEAE (Total QD Dosing, N = 25): 0 (0%)
Gastroenteritis, Grade 3 or greater TEAE (Total QD Dosing, N = 25): 0 (0%)
Hyperglycaemia, grade 3 or greater TEAE (Total QD Dosing, N = 25): 4 (16%)
Hypokalaemia, grade 3 or greater TEAE (Total QD Dosing, N = 25): 2 (8%)
Hyponatraemia, grade 3 or greater TEAE (Total QD Dosing, N = 25): 2 (8%)
Lymphopenia, grade 3 or greater TEAE (Total QD Dosing, N = 25): 2 (8%)
Pancreatitis acute, Grade 3 or greater TEAE (Total QD Dosing, N = 25): 1 (4%)
Pleural effusion, Grade 3 or greater TEAE (Total QD Dosing, N = 25): 1 (4%)
Pruritus, grade 3 or greater TEAE (Total QD Dosing, N = 25): 2 (8%)
Rash macular, Grade 3 or greater TEAE (Total QD Dosing, N = 25): 0 (0%)
Rash, grade 3 or greater TEAE (Total QD Dosing, N = 25): 7 (28%)
Somnolence, Grade 3 or greater TEAE (Total QD Dosing, N = 25): 1 (4%)
Thrombocytopenia, grade 3 or greater TEAE (Total QD Dosing, N = 25): 2 (8%)
Urinary tract infection, Grade 3 or greater TEAE (Total QD Dosing, N = 25): 0 (0%)
Abdominal pain upper, Grade 3 or greater TEAE (Total QDx3d QW, N = 14): 0 (0%)
Anaemia, grade 3 or greater TEAE (Total QDx3d QW, N = 14): 0 (0%)
Aspartate aminotransferase increased, Grade 3 or greater TEAE (Total QDx3d QW, N = 14): 0 (0%)
Asthenia, grade 3 or greater TEAE (Total QDx3d QW, N = 14): 1 (7%)
Catheter related infection, Grade 3 or greater TEAE (Total QDx3d QW, N = 14): 0 (0%)
Cellulitis, Grade 3 or greater TEAE (Total QDx3d QW, N = 14): 0 (0%)
Diarrhoea, grade 3 or greater TEAE (Total QDx3d QW, N = 14): 1 (7%)
Disease progression, grade 3 or greater TEAE (Total QDx3d QW, N = 14): 1 (7%)
Enterocutaneous fistula, Grade 3 or greater TEAE (Total QDx3d QW, N = 14): 0 (0%)
Gamma-glutamyltransferase increased, Grade 3 or greater TEAE (Total QDx3d QW, N = 14): 1 (7%)
Gastroenteritis, Grade 3 or greater TEAE (Total QDx3d QW, N = 14): 1 (7%)
Hyperglycaemia, grade 3 or greater TEAE (Total QDx3d QW, N = 14): 1 (7%)
Hypokalaemia, grade 3 or greater TEAE (Total QDx3d QW, N = 14): 0 (0%)
Hyponatraemia, grade 3 or greater TEAE (Total QDx3d QW, N = 14): 0 (0%)
Lymphopenia, grade 3 or greater TEAE (Total QDx3d QW, N = 14): 1 (7%)
Pancreatitis acute, Grade 3 or greater TEAE (Total QDx3d QW, N = 14): 0 (0%)
Patients Reporting at Least One Grade 3 or Greater TEAE (Total QDx3d QW, N = 14): 7 (50%)
Pleural effusion, Grade 3 or greater TEAE (Total QDx3d QW, N = 14): 0 (0%)
Pruritus, grade 3 or greater TEAE (Total QDx3d QW, N = 14): 0 (0%)
Rash macular, Grade 3 or greater TEAE (Total QDx3d QW, N = 14): 1 (7%)
Rash, grade 3 or greater TEAE (Total QDx3d QW, N = 14): 0 (0%)
Somnolence, Grade 3 or greater TEAE (Total QDx3d QW, N = 14): 0 (0%)
Thrombocytopenia, grade 3 or greater TEAE (Total QDx3d QW, N = 14): 0 (0%)
Urinary tract infection, Grade 3 or greater TEAE (Total QDx3d QW, N = 14): 1 (7%)
Abdominal pain upper, Grade 3 or greater TEAE (Total QDx5d QW, N = 6): 0 (0%)
Anaemia, grade 3 or greater TEAE (Total QDx5d QW, N = 6): 0 (0%)
Aspartate aminotransferase increased, Grade 3 or greater TEAE (Total QDx5d QW, N = 6): 0 (0%)
Asthenia, grade 3 or greater TEAE (Total QDx5d QW, N = 6): 0 (0%)
Catheter related infection, Grade 3 or greater TEAE (Total QDx5d QW, N = 6): 0 (0%)
Cellulitis, Grade 3 or greater TEAE (Total QDx5d QW, N = 6): 0 (0%)
Diarrhoea, grade 3 or greater TEAE (Total QDx5d QW, N = 6): 0 (0%)
Disease progression, grade 3 or greater TEAE (Total QDx5d QW, N = 6): 0 (0%)
Enterocutaneous fistula, Grade 3 or greater TEAE (Total QDx5d QW, N = 6): 0 (0%)
Gamma-glutamyltransferase increased, Grade 3 or greater TEAE (Total QDx5d QW, N = 6): 0 (0%)
Gastroenteritis, Grade 3 or greater TEAE (Total QDx5d QW, N = 6): 0 (0%)
Hyperglycaemia, grade 3 or greater TEAE (Total QDx5d QW, N = 6): 0 (0%)
Hypokalaemia, grade 3 or greater TEAE (Total QDx5d QW, N = 6): 0 (0%)
Hyponatraemia, grade 3 or greater TEAE (Total QDx5d QW, N = 6): 0 (0%)
Lymphopenia, grade 3 or greater TEAE (Total QDx5d QW, N = 6): 0 (0%)
Pancreatitis acute, Grade 3 or greater TEAE (Total QDx5d QW, N = 6): 0 (0%)
Patients Reporting at Least One Grade 3 or Greater TEAE (Total QDx5d QW, N = 6): 0 (0%)
Pleural effusion, Grade 3 or greater TEAE (Total QDx5d QW, N = 6): 0 (0%)
Pruritus, grade 3 or greater TEAE (Total QDx5d QW, N = 6): 0 (0%)
Rash macular, Grade 3 or greater TEAE (Total QDx5d QW, N = 6): 0 (0%)
Rash, grade 3 or greater TEAE (Total QDx5d QW, N = 6): 0 (0%)
Somnolence, Grade 3 or greater TEAE (Total QDx5d QW, N = 6): 0 (0%)
Thrombocytopenia, grade 3 or greater TEAE (Total QDx5d QW, N = 6): 0 (0%)
Urinary tract infection, Grade 3 or greater TEAE (Total QDx5d QW, N = 6): 0 (0%)
Abdominal pain upper, Grade 3 or greater TEAE (Total QW Dosing, N = 15): 0 (0%)
Anaemia, grade 3 or greater TEAE (Total QW Dosing, N = 15): 0 (0%)
Aspartate aminotransferase increased, Grade 3 or greater TEAE (Total QW Dosing, N = 15): 1 (7%)
Asthenia, grade 3 or greater TEAE (Total QW Dosing, N = 15): 0 (0%)
Catheter related infection, Grade 3 or greater TEAE (Total QW Dosing, N = 15): 0 (0%)
Cellulitis, Grade 3 or greater TEAE (Total QW Dosing, N = 15): 0 (0%)
Diarrhoea, grade 3 or greater TEAE (Total QW Dosing, N = 15): 1 (7%)
Disease progression, grade 3 or greater TEAE (Total QW Dosing, N = 15): 0 (0%)
Enterocutaneous fistula, Grade 3 or greater TEAE (Total QW Dosing, N = 15): 0 (0%)
Gamma-glutamyltransferase increased, Grade 3 or greater TEAE (Total QW Dosing, N = 15): 1 (7%)
Gastroenteritis, Grade 3 or greater TEAE (Total QW Dosing, N = 15): 0 (0%)
Hyperglycaemia, grade 3 or greater TEAE (Total QW Dosing, N = 15): 0 (0%)
Hypokalaemia, grade 3 or greater TEAE (Total QW Dosing, N = 15): 0 (0%)
Hyponatraemia, grade 3 or greater TEAE (Total QW Dosing, N = 15): 0 (0%)
Lymphopenia, grade 3 or greater TEAE (Total QW Dosing, N = 15): 1 (7%)
Pancreatitis acute, Grade 3 or greater TEAE (Total QW Dosing, N = 15): 0 (0%)
Patients Reporting at Least One Grade 3 or Greater TEAE (Total QW Dosing, N = 15): 3 (20%)
Pleural effusion, Grade 3 or greater TEAE (Total QW Dosing, N = 15): 0 (0%)
Pruritus, grade 3 or greater TEAE (Total QW Dosing, N = 15): 0 (0%)
Rash macular, Grade 3 or greater TEAE (Total QW Dosing, N = 15): 0 (0%)
Rash, grade 3 or greater TEAE (Total QW Dosing, N = 15): 0 (0%)
Somnolence, Grade 3 or greater TEAE (Total QW Dosing, N = 15): 0 (0%)
Thrombocytopenia, grade 3 or greater TEAE (Total QW Dosing, N = 15): 0 (0%)
Urinary tract infection, Grade 3 or greater TEAE (Total QW Dosing, N = 15): 0 (0%)
Abdominal pain upper, Grade 3 or greater TEAE (Total, N = 60): 1 (2%)
Anaemia, grade 3 or greater TEAE (Total, N = 60): 1 (2%)
Aspartate aminotransferase increased, Grade 3 or greater TEAE (Total, N = 60): 1 (2%)
Asthenia, grade 3 or greater TEAE (Total, N = 60): 1 (2%)
Catheter related infection, Grade 3 or greater TEAE (Total, N = 60): 1 (2%)
Cellulitis, Grade 3 or greater TEAE (Total, N = 60): 1 (2%)
Diarrhoea, grade 3 or greater TEAE (Total, N = 60): 3 (5%)
Disease progression, grade 3 or greater TEAE (Total, N = 60): 1 (2%)
Enterocutaneous fistula, Grade 3 or greater TEAE (Total, N = 60): 1 (2%)
Gamma-glutamyltransferase increased, Grade 3 or greater TEAE (Total, N = 60): 2 (3%)
Gastroenteritis, Grade 3 or greater TEAE (Total, N = 60): 1 (2%)
Hyperglycaemia, grade 3 or greater TEAE (Total, N = 60): 5 (8%)
Hypokalaemia, grade 3 or greater TEAE (Total, N = 60): 2 (3%)
Hyponatraemia, grade 3 or greater TEAE (Total, N = 60): 2 (3%)
Lymphopenia, grade 3 or greater TEAE (Total, N = 60): 4 (7%)
Pancreatitis acute, Grade 3 or greater TEAE (Total, N = 60): 1 (2%)
Pleural effusion, Grade 3 or greater TEAE (Total, N = 60): 1 (2%)
Pruritus, grade 3 or greater TEAE (Total, N = 60): 2 (3%)
Rash macular, Grade 3 or greater TEAE (Total, N = 60): 1 (2%)
Rash, grade 3 or greater TEAE (Total, N = 60): 7 (12%)
Somnolence, Grade 3 or greater TEAE (Total, N = 60): 1 (2%)
Thrombocytopenia, grade 3 or greater TEAE (Total, N = 60): 2 (3%)
Urinary tract infection, Grade 3 or greater TEAE (Total, N = 60): 1 (2%)
